Experimental data as given in patent US5488060A, “Substituted thiadiazoles, compositions containing them and their use as antimicrobial and marine antifouling agents” (The Dow Chemical Company, priority 1994, dated 1996).
Converted amounts (≈) assume the structure as drawn. Read-outs that look alike come from different tables or passages of the source.

Experiments:
Format in all cases: cell-based
[1] = test system: Pseudomonas aeruginosa (PRD-10); assay: Minimum inhibitory concentration (MIC) in nutrient agar, Pseudomonas aeruginosa PRD-10; settings: 48 h
Description: (§1) The antimicrobial activity of the compounds of the present invention is set forth as the minimum inhibitory concentration (MIC) for the active compounds and is determined for nine (9) bacteria, using nutrient agar, and seven (7) yeast and fungi, using malt yeast agar. This determination is conducted using a one percent solution of the test compound prepared in a mixture of acetone and water.
(§2) Nutrient agar is prepared at pH 6.8, representing a neutral medium, and at pH 8.2, representing an alkaline medium. The nutrient agars are prepared by adding 23 g of nutrient agar to one-liter of deionized water. In addition, the alkaline medium is prepared by adjusting a 0.04M solution of N-[tris-(hydroxymethyl)methyl]glycine buffered deionized water with concentrated sodium hydroxide to a pH of 8.5.
(§3) The test tubes containing the agar are cooled in a water bath until the temperature of the agar is 48° C. Then, an appropriate amount of the one percent solution of the test compound is added (except in the controls where no compound is added) to the respective test tubes so that the final concentrations are 500, […], 100, 50, 25, 10, 5, 2.5, 1.0 and zero parts per million of the test compound in the agar, thus having a known concentration of test compound dispersed therein. The contents of the test tubes are then transferred to respective petri plates. After drying for 24 hours, the petri plates containing nutrient agar are inoculated with bacteria and those containing malt yeast agar are inoculated with yeast and fungi.
(§4) The inoculation with bacteria is accomplished by using the following procedure. Twenty-four hour-cultures of each of the bacteria are prepared by incubating the respective bacteria in tubes containing nutrient broth for 24 hours at 30° C. in a shaker. Dilutions of each of the 24 hour-cultures are made so that nine separate suspensions (one for each of the nine test bacteria) are made, each containing 10^8 colony forming units (CFU) per mL of suspension of a particular bacteria. Aliquots of 0.3 mL of each of the bacterial suspensions are used to fill the individual wells of Steer's Replicator. For each microbial suspension, 0.3 mL was used to fill three wells (i.e., three wells of 0.3 mL each) so that for the nine different bacteria, 27 wells are filled. The Steer's Replicator is then used to inoculate both the neutral and alkaline pH nutrient agar petri plates.
(§5) The inoculated petri plates are incubated at 30° C. for 48 hours and then read to determine if the test compound which is incorporated into the agar prevented growth of the respective bacteria.

[2] = test system: Enterobacter aerogenes (Ea); assay: Minimum inhibitory concentration (MIC) in nutrient agar, Enterobacter aerogenes; settings: Klebsiella aerogenes, 48 h
Description: as §1, §2, §3, §4, §5

Trichoderma viride (Tv) = assay: Minimum inhibitory concentration (MIC) in malt yeast agar, Trichoderma viride
Description: as §1
(§6) Malt yeast agar is prepared at pH 5.5 by adding 3 g yeast extract and 45 g malt agar per liter of deionized water. The specific agar is dispensed in 30 mL aliquots into 25×200 mm test tubes, capped and autoclaved for 15 minutes at 115° C.
as §3
(§7) The inoculation with the yeast and fungi is accomplished as follows. Cultures of yeast and fungi are incubated for seven days on malt yeast agar at 30° C. These cultures are used to prepare suspensions by the following procedure. A suspension of each organism is prepared by adding 10 mL of sterile saline and 10 microliters of octylphenoxy polyethoxy ethanol to the agar slant of yeast or fungi. The sterile saline/octylphenoxy potyethoxy ethanol solution is then agitated with a sterile swab to suspend the microorganism grown on the slant. Each resulting suspension is diluted into sterile saline (1 part suspension: 9 parts sterile saline). Aliquots of these dilutions are placed in individual wells of Steer's Replicator and petri plates inoculated as previously described. The petri plates are incubated at 30° C. and read after 48 hours for yeast and 72 hours for fungi.

[3] = test system: Penicillium chrysogenum (Pc); assay: Minimum inhibitory concentration (MIC) in malt yeast agar, Penicillium chrysogenum; settings: pH 5.5; malt yeast agar, 30° C., 72 hours for fungi; read-out: Minimum Inhibitory Concentration, PC
Description: as §1, §6, §3, §7

Proteus vulgaris (Pv) = assay: Minimum inhibitory concentration (MIC) in nutrient agar, Proteus vulgaris; settings: 48 h
Description: as §1, §2, §3, §4, §5

[4] = test system: Aureobasidium pullulan (Ap); assay: Minimum inhibitory concentration (MIC) in malt yeast agar, Aureobasidium pullulan; settings: pH 5.5; malt yeast agar, 30° C.; read-out: Minimum Inhibitory Concentration, Ap
Description: as §1, §6, §3, §7

Bacillus subtilis (Bs) = assay: Minimum inhibitory concentration (MIC) in nutrient agar, Bacillus subtilis
Description: as §1, §2, §3, §4, §5

[5] = test system: Staphylococcus aureus (Sa); assay: Minimum inhibitory concentration (MIC) in nutrient agar, Staphylococcus aureus
Description: as §1, §2, §3, §4, §5

[6] = test system: Salmonella choleraesuis (Se); assay: Minimum inhibitory concentration (MIC) in nutrient agar, Salmonella choleraesuis; settings: Salmonella enterica, 48 h
Description: as §1, §2, §3, §4, §5

Aspergillus niger (An) = assay: Minimum inhibitory concentration (MIC) in malt yeast agar, Aspergillus niger
Description: as §1, §6, §3, §7

[7] = test system: Saccharomyces cerevisiae (Sc); assay: Minimum inhibitory concentration (MIC) in malt yeast agar, Saccharomyces cerevisiae; settings: pH 5.5, malt yeast agar, 30° C., 48 hours for yeast, read-out: Minimum Inhibitory Concentration, SC
Description: as §1, §6, §3, §7

[8] = test system: Klebsiella pneumoniae (Kp); assay: Minimum inhibitory concentration (MIC) in nutrient agar, Klebsiella pneumoniae
Description: as §1, §2, §3, §4, §5

Candida albicans (Ca) = assay: Minimum inhibitory concentration (MIC) in malt yeast agar, Candida albicans
Description: as §1, §6, §3, §7

Fusarium oxysporum (Fo) = assay: Minimum inhibitory concentration (MIC) in malt yeast agar, Fusarium oxysporum
Description: as §1, §6, §3, §7

[9] = test system: Pseudomonas aeruginosa (Pa); assay: Minimum inhibitory concentration (MIC) in nutrient agar, Pseudomonas aeruginosa; settings: 30° C., 48 hours, read-out: Minimum Inhibitory Concentration, Pa
Description: as §1, §2, §3, §4, §5

Escherichia coli (Ec) = assay: Minimum inhibitory concentration (MIC) in nutrient agar, Escherichia coli
Description: as §1, §2, §3, §4, §5

[10] = pH 6.8, read-out: Minimum Inhibitory Concentration, PRD
[11] = pH 8.2, read-out: Minimum Inhibitory Concentration, PRD
[12] = pH 6.8, read-out: Minimum Inhibitory Concentration, Ea
[13] = pH 8.2, read-out: Minimum Inhibitory Concentration, Ea
[14] = pH 6.8, read-out: Minimum Inhibitory Concentration, Pv
[15] = pH 8.2, read-out: Minimum Inhibitory Concentration, Pv
[16] = 48 h, pH 8.2, read-out: Minimum Inhibitory Concentration, Bs
[17] = 48 h, pH 8.2, read-out: Minimum Inhibitory Concentration, Sa
[18] = pH 6.8, nutrient agar, 30° C., 48 hours, read-out: Minimum Inhibitory Concentration, Sa
[19] = pH 6.8, read-out: Minimum Inhibitory Concentration, SC
[20] = pH 8.2, read-out: Minimum Inhibitory Concentration, SC
[21] = 48 h, pH 8.2, read-out: Minimum Inhibitory Concentration, Kp
[22] = pH 6.8, nutrient agar, 30° C., 48 hours, read-out: Minimum Inhibitory Concentration, Kp
[23] = 48 h, pH 6.8, read-out: Minimum Inhibitory Concentration, Ec

| SMILES | MIC [1, 10] [µg/mL] | MIC [1, 11] [µg/mL] | MIC [2, 12] [µg/mL] | MIC [2, 13] [µg/mL] | MIC [3] [µg/mL] | MIC (Proteus vulgaris (Pv); [14]) [µg/mL] | MIC (Proteus vulgaris (Pv); [15]) [µg/mL] | MIC [4] [µg/mL] | MIC (Bacillus subtilis (Bs); [16]) [µg/mL] | MIC [5, 17] [µg/mL] | MIC [5, 18] [µg/mL] | MIC [6, 19] [µg/mL] | MIC [6, 20] [µg/mL] | MIC [7] [µg/mL] | MIC [8, 21] [µg/mL] | MIC [8, 22] [µg/mL] | MIC ([9]; pH 6.8, nutrient agar) [µg/mL] | MIC ([9]; pH 8.2, nutrient agar) [µg/mL] | MIC (Escherichia coli (Ec); [23]) [µg/mL] | other results |
| --- | --- | --- | --- | --- | --- | --- | --- | --- | --- | --- | --- | --- | --- | --- | --- | --- | --- | --- | --- | --- |
| N#CSCSc1nsnc1-c1ccc(Cl)cc1 [Example XVIII, 4-(4-Chlorophenyl)-3-thiocyanatomethylthio-1,2,5-thiadiazole] | 500 (≈ 1670 µM) | > 500 | 500 (≈ 1670 µM) | > 500 | 9 (≈ 30 µM) | 500 (≈ 1670 µM) | > 500 | 9 (≈ 30 µM) | 500 (≈ 1670 µM) | > 500 | 500 (≈ 1670 µM) | 500 (≈ 1670 µM) | > 500 | 9 (≈ 30 µM) | > 500 | 500 (≈ 1670 µM) | 500 (≈ 1670 µM) | > 500 | 500 (≈ 1670 µM) | MIC (Trichoderma viride (Tv); 72 h, pH 5.5, read-out: Minimum Inhibitory Concentration, Tv): 250 µg/mL (≈ 834 µM); MIC (Bacillus subtilis (Bs); 48 h, pH 6.8, read-out: Minimum Inhibitory Concentration, Bs): 500 µg/mL (≈ 1670 µM); MIC (Aspergillus niger (An); pH 5.5, malt yeast agar, 30° C., 72 hours for fungi, read-out: Minimum Inhibitory Concentration, An): 9 µg/mL (≈ 30 µM); MIC (Candida albicans (Ca); 48 h, pH 5.5, read-out: Minimum Inhibitory Concentration, Ca): 250 µg/mL (≈ 834 µM); MIC (Fusarium oxysporum (Fo); 72 h, pH 5.5, read-out: Minimum Inhibitory Concentration, Fo): 100 µg/mL (≈ 334 µM); MIC (Escherichia coli (Ec); pH 8.2, nutrient agar, 30° C., 48 hours, read-out: Minimum Inhibitory Concentration, Ec): 250 µg/mL (≈ 834 µM) |
| N#CSCSc1nsnc1-c1ccc(Br)cc1 [Example XVII, 4-(4-Bromophenyl)-3-thiocyanatomethylthio-1,2,5-thiadiazole] | > 500 | > 500 | > 500 | > 500 | 9 (≈ 26.1 µM) | > 500 | > 500 | 9 (≈ 26.1 µM) | 25 (≈ 72.6 µM) | > 500 | > 500 | > 500 | > 500 | 9 (≈ 26.1 µM) | > 500 | > 500 | > 500 | > 500 | > 500 | MIC (Trichoderma viride (Tv); pH 5.5, malt yeast agar, 30° C., 72 hours for fungi, read-out: Minimum Inhibitory Concentration, Tv): 500 µg/mL (≈ 1450 µM); MIC (Bacillus subtilis (Bs); pH 6.8, nutrient agar, 30° C., 48 hours, read-out: Minimum Inhibitory Concentration, Bs): 9 µg/mL (≈ 26.1 µM); MIC (Aspergillus niger (An); 72 h, pH 5.5, read-out: Minimum Inhibitory Concentration, An): 25 µg/mL (≈ 72.6 µM); MIC (Candida albicans (Ca); pH 5.5, malt yeast agar, 30° C., 48 hours for yeast, read-out: Minimum Inhibitory Concentration, Ca): 500 µg/mL (≈ 1450 µM); MIC (Fusarium oxysporum (Fo); pH 5.5, malt yeast agar, 30° C., 72 hours for fungi, read-out: Minimum Inhibitory Concentration, Fo): 250 µg/mL (≈ 726 µM); MIC (Escherichia coli (Ec); 48 h, pH 8.2, read-out: Minimum Inhibitory Concentration, Ec): > 500 µg/mL |
